Data reported in the supplement of paper PMC13386468.

Columns and labels:
Conditions in all cases: assay detail: Kinobeads competition in P. falciparum blood-stage lysate
UniProt Q8I535 = test: apparent dissociation constant (Kd app) from Kinobeads competition
UniProt O77344 = test: as above
UniProt Q8I5D4 = test: as above
UniProt Q8IAM4 = test: as above
UniProt Q8I442 = test: as above
UniProt Q8IIW6 = test: as above
UniProt Q8I5E3 = test: as above
UniProt Q8IKQ9 = test: as above
UniProt Q8IJR8 = test: as above
UniProt C6KSZ6 = test: as above
UniProt Q8IAZ3 = test: as above
UniProt Q8I5H9 = test: as above
UniProt C6KSQ1 = test: as above
UniProt Q7KQK0 = test: as above
UniProt Q9U0K8 = test: as above
UniProt C0H4R8 = test: as above
UniProt Q8IEL1 = test: as above
A0A144A0U7 = test: as above
UniProt Q8IE41 = test: as above
UniProt Q8IL13 = test: IC50 for competition of protein binding to Kinobeads
UniProt Q8IHP1 = test: as above
UniProt Q8IBU2 = test: as above
UniProt Q8IDM2 = test: as above
UniProt C0H4U4 = test: as above
UniProt Q8IDV0 = test: as above
UniProt Q8I3F0 = test: as above
UniProt O96278 = test: as above
UniProt Q8I4W4 = test: as above
UniProt O77330 = test: as above
UniProt Q8IKZ6 = test: as above
UniProt Q8I5A9 = test: as above
UniProt Q8IBV7 = test: as above
UniProt Q8IM55 = test: as above
UniProt Q8I586 = test: as above
UniProt Q8I4R5 = test: as above
UniProt O97231 = test: as above
UniProt Q8IL48 = test: as above
UniProt P50250 = test: as above
UniProt Q8IIC9 = test: as above
UniProt C0H4V6 = test: as above
UniProt Q9TY95 = test: as above
UniProt Q8IJI7 = test: as above
UniProt Q8I298 = test: as above
UniProt C6KSW5 = test: as above
UniProt Q8IDQ9 = test: as above
UniProt Q8IIU5 = test: as above
UniProt Q8IES0 = test: as above
UniProt Q8I395 = test: as above
UniProt Q8IDG2 = test: as above
UniProt Q8IHU0 = test: as above
UniProt O77345 = test: as above
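Throughout, for IC50: native unpurified kinases from lysate captured on beads bearing immobilized kinase inhibitors, with bead-bound kinases quantified by mass spectrometry across compound doses.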

UniProt C0H4V6, sequence (C0H4V6 whole entry): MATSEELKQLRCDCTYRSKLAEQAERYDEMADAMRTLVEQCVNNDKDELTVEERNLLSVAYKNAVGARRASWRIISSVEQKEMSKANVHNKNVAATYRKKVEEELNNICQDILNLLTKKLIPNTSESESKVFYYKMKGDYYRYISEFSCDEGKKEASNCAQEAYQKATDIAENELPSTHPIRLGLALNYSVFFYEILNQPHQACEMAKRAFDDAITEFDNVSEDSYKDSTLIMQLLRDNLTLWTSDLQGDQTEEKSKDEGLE
UniProt Q8IDQ9, sequence (Q8IDQ9 whole entry): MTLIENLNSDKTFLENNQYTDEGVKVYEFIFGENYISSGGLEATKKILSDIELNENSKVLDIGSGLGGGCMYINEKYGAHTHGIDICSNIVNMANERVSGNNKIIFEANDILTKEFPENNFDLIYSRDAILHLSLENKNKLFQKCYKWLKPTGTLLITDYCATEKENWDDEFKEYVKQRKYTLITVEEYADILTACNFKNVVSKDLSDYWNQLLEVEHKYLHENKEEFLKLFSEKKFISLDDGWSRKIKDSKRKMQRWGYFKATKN
UniProt Q8I395, sequence (Q8I395 whole entry): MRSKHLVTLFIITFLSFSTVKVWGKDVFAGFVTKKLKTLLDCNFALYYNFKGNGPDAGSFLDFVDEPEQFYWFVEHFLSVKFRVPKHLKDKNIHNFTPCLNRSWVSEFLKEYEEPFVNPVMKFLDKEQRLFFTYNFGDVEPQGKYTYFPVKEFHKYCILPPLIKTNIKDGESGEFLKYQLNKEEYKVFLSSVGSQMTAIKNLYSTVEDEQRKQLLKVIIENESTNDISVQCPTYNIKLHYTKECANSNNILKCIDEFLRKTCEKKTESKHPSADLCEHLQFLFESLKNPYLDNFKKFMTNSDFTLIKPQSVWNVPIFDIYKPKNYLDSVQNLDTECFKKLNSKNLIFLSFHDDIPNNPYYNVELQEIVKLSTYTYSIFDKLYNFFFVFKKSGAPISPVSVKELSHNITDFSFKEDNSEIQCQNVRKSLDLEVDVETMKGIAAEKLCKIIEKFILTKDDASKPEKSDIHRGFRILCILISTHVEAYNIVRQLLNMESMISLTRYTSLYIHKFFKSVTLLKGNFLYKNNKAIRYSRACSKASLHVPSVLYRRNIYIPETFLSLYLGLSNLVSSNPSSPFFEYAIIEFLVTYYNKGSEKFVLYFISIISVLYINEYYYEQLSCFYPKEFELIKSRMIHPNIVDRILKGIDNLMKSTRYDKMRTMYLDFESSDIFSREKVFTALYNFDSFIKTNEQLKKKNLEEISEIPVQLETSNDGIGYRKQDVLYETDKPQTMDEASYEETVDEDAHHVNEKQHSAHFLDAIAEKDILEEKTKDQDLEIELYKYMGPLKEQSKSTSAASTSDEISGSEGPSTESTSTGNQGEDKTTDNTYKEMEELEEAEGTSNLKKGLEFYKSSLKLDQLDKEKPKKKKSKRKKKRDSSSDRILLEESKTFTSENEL
UniProt Q9TY95, sequence (Q9TY95 whole entry): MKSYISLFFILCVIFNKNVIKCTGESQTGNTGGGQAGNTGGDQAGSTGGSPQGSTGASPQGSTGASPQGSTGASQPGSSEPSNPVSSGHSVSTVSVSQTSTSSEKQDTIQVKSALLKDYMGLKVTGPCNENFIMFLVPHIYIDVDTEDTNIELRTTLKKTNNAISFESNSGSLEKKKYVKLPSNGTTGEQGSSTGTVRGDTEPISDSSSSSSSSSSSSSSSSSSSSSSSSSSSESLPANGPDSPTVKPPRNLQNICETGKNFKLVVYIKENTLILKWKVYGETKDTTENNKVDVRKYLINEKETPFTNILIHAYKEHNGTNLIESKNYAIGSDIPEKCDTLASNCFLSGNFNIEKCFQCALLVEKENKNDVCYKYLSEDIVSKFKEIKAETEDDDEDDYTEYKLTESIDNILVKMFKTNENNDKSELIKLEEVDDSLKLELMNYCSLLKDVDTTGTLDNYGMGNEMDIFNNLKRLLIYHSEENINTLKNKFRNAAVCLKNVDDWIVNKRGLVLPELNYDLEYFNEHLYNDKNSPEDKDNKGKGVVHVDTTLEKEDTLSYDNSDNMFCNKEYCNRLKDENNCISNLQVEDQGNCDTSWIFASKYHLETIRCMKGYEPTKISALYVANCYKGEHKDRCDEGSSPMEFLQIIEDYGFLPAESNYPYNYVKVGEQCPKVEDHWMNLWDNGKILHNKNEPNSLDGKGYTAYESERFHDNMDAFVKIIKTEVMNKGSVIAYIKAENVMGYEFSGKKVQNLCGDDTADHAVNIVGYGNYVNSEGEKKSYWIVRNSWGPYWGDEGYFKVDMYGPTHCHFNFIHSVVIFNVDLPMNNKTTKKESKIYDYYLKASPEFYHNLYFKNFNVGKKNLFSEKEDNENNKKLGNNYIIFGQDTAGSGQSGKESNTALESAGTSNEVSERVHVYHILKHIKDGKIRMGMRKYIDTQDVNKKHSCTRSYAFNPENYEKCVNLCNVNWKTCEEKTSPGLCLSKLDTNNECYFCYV
UniProt P50250, sequence (P50250 whole entry): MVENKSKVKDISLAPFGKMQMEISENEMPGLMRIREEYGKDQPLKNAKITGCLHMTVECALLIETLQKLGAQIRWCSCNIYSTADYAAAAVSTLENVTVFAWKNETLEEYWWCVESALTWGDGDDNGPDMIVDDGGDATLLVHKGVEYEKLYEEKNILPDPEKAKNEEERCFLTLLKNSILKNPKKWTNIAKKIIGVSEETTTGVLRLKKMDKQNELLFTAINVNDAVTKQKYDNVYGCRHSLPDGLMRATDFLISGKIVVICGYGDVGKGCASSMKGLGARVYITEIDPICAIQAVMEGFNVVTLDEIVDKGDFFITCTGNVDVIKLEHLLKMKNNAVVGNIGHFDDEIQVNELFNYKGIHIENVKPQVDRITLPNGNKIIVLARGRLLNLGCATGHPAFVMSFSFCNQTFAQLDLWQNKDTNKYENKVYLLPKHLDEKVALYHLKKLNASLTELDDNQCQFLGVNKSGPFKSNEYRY
UniProt O97231, sequence (O97231 whole entry): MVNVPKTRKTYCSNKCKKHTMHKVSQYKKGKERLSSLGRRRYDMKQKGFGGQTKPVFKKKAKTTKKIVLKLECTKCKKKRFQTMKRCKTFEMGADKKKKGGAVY

**Q.** Which results are given for O=c1[nH]c2ccc(Cl)cc2c(NC2CN3CCC2CC3)c1-c1nc2ccccc2[nH]1 (stereo unspecified) [CHIR-124]?
**A.** Kd (UniProt Q8I535): 0.0455 µM; Kd (UniProt O77344): 1.28 µM; Kd (UniProt Q8I5D4): 5.65 µM; Kd (UniProt Q8IAM4): 7.66 µM; Kd (UniProt Q8I442): 7.1 µM; Kd (UniProt Q8IIW6): 0.181 µM; Kd (UniProt Q8I5E3): 7.57 µM; Kd (UniProt Q8IKQ9): 15.3 µM; Kd (UniProt Q8IJR8): 0.314 µM; Kd (UniProt C6KSZ6): 1.4 µM; Kd (UniProt Q8IAZ3): 9.02 µM; Kd (UniProt Q8I5H9): 10.3 µM; Kd (UniProt C6KSQ1): 0.168 µM; Kd (UniProt Q7KQK0): 0.621 µM; Kd (UniProt Q9U0K8): 4.29 µM; Kd (UniProt C0H4R8): 4.84 µM; Kd (UniProt Q8IEL1): 1.9 µM; Kd (A0A144A0U7): 7.53 µM; Kd (UniProt Q8IE41): 0.239 µM; IC50 (UniProt Q8IL13): > 20 µM; IC50 (UniProt Q8IHP1): > 20 µM; IC50 (UniProt Q8IBU2): > 20 µM; IC50 (UniProt Q8IDM2): > 20 µM; IC50 (UniProt C0H4U4): > 20 µM; IC50 (UniProt Q8IDV0): > 20 µM; IC50 (UniProt Q8I3F0): > 20 µM; IC50 (UniProt O96278): > 20 µM; IC50 (UniProt Q8I4W4): > 20 µM; IC50 (UniProt O77330): > 20 µM; IC50 (UniProt Q8IKZ6): > 20 µM; IC50 (UniProt Q8I5A9): > 20 µM; IC50 (UniProt Q8IBV7): > 20 µM; IC50 (UniProt Q8IM55): > 20 µM; IC50 (UniProt Q8I586): > 20 µM; IC50 (UniProt Q8I4R5): > 20 µM; IC50 (UniProt O97231): > 20 µM; IC50 (UniProt Q8IL48): > 20 µM; IC50 (UniProt P50250): > 20 µM; IC50 (UniProt Q8IIC9): > 20 µM; IC50 (UniProt C0H4V6): > 20 µM; IC50 (UniProt Q9TY95): > 20 µM; IC50 (UniProt Q8IJI7): > 20 µM; IC50 (UniProt Q8I298): > 20 µM; IC50 (UniProt C6KSW5): > 20 µM; IC50 (UniProt Q8IDQ9): > 20 µM; IC50 (UniProt Q8IIU5): > 20 µM; IC50 (UniProt Q8IES0): > 20 µM; IC50 (UniProt Q8I395): > 20 µM; IC50 (UniProt Q8IDG2): > 20 µM; IC50 (UniProt Q8IHU0): > 20 µM; IC50 (UniProt O77345): > 20 µM
